# Tests used:
# Insulin receptor = Insulin receptor (Homo sapiens, UniProt P06213); assay: Selectivity interaction (KinomeScan (DiscoverX)) EUB0001079a INSR; settings: at 1 µM
# [1] = molecular target: Serine/threonine-protein kinase PAK 1 (Homo sapiens) (UniProt Q13153); assay: Selectivity interaction (KinomeScan (DiscoverX)) EUB0001079a PAK1; settings: at 1 µM
# [2] = molecular target: Protein polybromo-1 (Homo sapiens) (UniProt Q86U86); assay: Selectivity interaction (Human bromodomain panel (DSF assay)) EUB0000233b PBRM1
# Sequence of Protein polybromo-1 (Homo sapiens) (Q86U86 whole entry): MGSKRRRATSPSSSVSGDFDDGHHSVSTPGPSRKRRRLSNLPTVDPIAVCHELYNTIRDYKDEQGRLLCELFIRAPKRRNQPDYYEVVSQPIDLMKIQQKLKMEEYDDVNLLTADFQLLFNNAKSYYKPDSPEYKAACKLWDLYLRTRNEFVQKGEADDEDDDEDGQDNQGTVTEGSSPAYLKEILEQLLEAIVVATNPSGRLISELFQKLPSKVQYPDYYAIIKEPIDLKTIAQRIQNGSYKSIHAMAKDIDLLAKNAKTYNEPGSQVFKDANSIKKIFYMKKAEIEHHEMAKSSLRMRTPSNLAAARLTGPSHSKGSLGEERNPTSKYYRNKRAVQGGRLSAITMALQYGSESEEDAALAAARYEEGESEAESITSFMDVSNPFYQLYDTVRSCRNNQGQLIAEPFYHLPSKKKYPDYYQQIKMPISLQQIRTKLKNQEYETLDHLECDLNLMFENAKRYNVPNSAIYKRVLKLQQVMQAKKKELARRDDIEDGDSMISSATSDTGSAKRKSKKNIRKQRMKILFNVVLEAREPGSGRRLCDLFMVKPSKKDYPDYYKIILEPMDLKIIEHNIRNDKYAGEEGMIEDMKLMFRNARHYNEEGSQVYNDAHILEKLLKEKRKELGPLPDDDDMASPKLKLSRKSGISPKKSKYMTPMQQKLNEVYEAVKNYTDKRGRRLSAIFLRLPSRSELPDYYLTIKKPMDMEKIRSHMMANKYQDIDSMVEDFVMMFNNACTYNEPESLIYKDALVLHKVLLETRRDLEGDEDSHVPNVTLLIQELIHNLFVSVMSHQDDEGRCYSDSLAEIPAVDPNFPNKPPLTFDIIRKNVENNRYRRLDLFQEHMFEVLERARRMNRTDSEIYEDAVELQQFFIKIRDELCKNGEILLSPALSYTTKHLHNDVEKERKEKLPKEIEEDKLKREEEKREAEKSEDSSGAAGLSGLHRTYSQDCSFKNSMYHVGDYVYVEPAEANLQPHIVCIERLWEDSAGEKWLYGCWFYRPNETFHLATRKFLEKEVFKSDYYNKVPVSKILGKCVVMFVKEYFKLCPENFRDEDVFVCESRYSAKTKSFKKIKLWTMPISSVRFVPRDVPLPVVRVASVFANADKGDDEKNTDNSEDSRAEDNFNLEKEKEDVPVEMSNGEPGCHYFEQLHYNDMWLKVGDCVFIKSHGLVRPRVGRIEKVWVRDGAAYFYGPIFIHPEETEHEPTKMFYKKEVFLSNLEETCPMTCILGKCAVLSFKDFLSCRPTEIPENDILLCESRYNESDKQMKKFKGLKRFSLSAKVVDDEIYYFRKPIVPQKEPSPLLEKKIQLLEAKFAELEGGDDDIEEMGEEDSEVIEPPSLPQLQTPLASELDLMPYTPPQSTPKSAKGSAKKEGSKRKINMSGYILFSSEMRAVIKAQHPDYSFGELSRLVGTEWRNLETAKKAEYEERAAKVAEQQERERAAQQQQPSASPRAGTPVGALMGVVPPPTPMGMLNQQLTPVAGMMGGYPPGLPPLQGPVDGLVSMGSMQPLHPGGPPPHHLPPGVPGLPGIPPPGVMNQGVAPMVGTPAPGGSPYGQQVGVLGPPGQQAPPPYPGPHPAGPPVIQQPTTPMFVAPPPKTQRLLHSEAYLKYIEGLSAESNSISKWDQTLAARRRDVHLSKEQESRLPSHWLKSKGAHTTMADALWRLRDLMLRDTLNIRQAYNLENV
# [3] = molecular target: T1, Cyclin-dependent kinase-like 5 (Homo sapiens) (UniProt O76039); assay: Selectivity interaction (KinomeScan (DiscoverX)) EUB0000666a CDKL5; settings: at 10 µM
# T1 sequence (whole entry): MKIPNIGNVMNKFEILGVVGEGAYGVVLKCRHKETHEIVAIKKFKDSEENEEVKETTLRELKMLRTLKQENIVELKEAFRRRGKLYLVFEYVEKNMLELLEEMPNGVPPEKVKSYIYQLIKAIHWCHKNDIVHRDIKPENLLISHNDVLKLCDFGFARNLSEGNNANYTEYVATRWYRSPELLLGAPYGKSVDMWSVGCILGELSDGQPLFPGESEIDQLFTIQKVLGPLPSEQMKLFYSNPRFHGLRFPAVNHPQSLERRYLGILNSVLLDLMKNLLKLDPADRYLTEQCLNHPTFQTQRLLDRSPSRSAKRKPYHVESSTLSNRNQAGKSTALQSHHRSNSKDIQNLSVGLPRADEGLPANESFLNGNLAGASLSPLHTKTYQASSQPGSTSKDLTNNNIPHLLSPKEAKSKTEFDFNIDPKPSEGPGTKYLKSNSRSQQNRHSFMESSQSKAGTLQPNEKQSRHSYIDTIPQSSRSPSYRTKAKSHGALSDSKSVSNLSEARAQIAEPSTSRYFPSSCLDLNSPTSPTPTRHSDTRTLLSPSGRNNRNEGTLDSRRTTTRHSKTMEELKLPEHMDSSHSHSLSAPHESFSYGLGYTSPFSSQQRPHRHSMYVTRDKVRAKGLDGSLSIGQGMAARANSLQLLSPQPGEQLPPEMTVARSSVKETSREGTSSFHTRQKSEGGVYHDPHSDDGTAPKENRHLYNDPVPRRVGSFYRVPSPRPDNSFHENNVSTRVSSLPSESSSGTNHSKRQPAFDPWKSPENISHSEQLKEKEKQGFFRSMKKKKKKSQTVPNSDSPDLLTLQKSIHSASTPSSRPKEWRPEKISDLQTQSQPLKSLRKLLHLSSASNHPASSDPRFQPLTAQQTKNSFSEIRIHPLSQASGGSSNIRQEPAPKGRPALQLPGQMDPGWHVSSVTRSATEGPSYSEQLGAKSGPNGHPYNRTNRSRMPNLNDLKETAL
# [4] = molecular target: Vascular endothelial growth factor receptor 1 (Homo sapiens) (UniProt P17948); assay: Selectivity interaction (Kinase panel (Z-LYTE Assay)) EUB0001632a FLT1; settings: at 10 µM
# Sequence of Vascular endothelial growth factor receptor 1 (Homo sapiens) (P17948 whole entry): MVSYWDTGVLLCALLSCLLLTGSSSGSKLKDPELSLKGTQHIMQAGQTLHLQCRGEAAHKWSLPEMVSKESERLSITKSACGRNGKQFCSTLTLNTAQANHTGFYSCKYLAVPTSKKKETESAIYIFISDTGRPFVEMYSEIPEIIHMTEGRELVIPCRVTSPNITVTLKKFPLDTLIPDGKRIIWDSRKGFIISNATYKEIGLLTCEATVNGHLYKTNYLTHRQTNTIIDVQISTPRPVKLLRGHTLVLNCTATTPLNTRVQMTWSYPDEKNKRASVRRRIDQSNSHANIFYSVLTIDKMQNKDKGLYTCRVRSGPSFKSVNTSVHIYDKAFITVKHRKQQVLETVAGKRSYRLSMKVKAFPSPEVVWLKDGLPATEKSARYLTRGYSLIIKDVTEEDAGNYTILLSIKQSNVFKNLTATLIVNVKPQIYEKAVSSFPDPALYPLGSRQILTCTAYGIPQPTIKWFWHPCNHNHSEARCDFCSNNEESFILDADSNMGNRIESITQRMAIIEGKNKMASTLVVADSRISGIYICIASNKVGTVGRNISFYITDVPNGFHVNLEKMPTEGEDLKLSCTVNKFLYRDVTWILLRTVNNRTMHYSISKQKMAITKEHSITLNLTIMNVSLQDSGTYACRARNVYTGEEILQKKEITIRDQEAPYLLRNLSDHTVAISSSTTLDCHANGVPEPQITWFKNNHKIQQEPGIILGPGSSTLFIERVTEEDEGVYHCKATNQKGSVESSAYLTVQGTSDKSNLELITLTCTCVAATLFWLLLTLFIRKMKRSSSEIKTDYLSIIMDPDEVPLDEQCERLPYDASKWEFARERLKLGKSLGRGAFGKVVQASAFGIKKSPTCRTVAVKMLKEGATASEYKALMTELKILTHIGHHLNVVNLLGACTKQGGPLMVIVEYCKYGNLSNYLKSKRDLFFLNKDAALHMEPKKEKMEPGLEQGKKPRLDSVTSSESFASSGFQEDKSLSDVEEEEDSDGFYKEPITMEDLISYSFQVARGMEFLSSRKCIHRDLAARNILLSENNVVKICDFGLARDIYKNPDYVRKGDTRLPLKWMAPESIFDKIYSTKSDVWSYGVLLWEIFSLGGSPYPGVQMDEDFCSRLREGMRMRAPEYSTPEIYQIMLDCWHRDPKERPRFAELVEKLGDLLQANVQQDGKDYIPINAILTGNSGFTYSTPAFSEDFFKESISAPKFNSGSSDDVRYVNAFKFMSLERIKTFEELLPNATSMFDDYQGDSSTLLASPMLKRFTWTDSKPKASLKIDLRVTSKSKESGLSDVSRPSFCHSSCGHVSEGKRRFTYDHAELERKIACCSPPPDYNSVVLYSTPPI
# [5] = molecular target: RAC-beta serine/threonine-protein kinase (Homo sapiens) (UniProt P31751); assay: Selectivity interaction (KinomeScan (DiscoverX)) EUB0001049a AKT2; settings: at 1 µM
# [6] = molecular target: T2, Serine/threonine-protein kinase TAO2 (Homo sapiens) (UniProt Q9UL54); assay: Selectivity interaction (KinomeScan (DiscoverX)) EUB0000595a TAOK2; settings: at 10 µM
# T2 sequence (whole entry): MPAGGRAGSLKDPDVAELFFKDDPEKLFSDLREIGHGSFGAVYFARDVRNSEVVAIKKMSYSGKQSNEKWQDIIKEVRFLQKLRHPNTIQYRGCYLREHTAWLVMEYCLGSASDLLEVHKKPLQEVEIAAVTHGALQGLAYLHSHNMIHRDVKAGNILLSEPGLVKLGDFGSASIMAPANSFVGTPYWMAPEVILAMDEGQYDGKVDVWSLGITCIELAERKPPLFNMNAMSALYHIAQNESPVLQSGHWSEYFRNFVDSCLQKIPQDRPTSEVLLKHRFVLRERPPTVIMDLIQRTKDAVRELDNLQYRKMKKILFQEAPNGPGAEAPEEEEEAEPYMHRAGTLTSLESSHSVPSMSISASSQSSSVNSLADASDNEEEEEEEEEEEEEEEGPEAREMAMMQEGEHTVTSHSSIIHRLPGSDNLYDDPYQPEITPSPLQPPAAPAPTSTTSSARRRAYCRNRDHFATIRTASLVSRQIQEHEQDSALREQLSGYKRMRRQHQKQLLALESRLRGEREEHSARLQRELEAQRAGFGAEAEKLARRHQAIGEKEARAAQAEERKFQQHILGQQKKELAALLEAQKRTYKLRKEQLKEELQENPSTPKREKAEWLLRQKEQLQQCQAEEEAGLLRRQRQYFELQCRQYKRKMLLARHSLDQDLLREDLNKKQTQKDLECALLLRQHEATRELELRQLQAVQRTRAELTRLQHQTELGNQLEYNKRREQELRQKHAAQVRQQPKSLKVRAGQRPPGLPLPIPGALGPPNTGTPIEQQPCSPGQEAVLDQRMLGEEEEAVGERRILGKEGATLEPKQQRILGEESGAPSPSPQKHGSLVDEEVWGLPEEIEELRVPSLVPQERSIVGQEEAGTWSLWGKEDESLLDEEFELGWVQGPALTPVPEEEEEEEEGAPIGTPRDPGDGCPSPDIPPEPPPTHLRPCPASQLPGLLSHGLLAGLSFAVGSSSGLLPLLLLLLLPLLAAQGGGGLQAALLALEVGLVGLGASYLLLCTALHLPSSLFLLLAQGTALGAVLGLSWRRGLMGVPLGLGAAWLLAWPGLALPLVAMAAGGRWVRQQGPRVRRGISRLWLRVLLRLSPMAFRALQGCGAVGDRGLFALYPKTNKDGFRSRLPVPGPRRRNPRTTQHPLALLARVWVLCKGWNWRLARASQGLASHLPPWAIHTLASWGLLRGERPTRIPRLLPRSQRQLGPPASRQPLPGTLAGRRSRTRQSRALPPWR
# [7] = molecular target: T3, Aurora kinase A (Homo sapiens) (UniProt O14965); assay: Selectivity interaction (KinomeScan (DiscoverX)) EUB0000618a STK6; settings: at 10 µM
# T3 sequence (whole entry): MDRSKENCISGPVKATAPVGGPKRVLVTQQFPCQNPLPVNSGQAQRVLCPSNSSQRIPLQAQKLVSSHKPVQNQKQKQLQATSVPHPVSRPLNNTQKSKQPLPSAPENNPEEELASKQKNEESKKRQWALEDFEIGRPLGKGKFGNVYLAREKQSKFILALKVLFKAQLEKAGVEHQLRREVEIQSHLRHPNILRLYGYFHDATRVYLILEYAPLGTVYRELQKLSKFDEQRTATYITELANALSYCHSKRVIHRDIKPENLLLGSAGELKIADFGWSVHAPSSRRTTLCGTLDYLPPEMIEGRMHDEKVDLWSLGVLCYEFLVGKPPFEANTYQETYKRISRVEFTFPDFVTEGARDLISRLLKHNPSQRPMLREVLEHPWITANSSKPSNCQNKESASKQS
# Sequence of Insulin receptor (P06213 28-758 limits assumed): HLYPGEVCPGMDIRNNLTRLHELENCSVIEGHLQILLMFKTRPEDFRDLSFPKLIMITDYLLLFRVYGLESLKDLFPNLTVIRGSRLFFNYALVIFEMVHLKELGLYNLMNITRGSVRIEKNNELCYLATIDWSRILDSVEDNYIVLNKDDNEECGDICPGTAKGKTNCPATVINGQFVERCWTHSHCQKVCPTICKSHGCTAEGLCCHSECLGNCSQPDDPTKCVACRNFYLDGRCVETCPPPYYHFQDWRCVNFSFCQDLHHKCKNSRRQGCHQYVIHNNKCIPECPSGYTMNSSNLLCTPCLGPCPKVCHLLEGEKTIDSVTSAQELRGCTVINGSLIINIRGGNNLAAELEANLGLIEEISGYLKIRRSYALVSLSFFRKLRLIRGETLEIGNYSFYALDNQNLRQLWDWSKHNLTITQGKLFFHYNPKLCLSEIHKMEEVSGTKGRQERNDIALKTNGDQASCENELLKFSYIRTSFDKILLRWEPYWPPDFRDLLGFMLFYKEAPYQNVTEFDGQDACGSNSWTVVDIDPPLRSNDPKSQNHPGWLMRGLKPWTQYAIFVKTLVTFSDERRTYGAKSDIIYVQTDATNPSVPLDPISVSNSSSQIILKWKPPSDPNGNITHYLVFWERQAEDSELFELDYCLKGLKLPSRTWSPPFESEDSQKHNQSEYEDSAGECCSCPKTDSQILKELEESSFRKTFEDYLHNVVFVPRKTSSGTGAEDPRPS
# Sequence of Insulin receptor (P06213 763-1382 limits assumed): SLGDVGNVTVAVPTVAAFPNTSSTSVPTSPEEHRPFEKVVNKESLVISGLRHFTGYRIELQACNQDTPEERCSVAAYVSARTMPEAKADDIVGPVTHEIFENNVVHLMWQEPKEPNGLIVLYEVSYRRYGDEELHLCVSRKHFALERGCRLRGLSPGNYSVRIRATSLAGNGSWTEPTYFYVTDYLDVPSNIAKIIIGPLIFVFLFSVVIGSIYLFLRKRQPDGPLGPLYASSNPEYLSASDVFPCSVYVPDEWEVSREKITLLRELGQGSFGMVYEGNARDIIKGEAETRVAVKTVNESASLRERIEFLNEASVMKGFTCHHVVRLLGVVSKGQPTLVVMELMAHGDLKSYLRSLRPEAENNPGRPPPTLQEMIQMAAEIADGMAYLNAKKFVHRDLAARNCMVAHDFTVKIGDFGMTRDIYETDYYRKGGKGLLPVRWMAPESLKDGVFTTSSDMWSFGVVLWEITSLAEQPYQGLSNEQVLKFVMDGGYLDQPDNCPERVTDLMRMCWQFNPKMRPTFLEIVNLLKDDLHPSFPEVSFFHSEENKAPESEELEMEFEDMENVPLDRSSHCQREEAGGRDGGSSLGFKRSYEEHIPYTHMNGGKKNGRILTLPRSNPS
# Sequence of Serine/threonine-protein kinase PAK 1 (Homo sapiens) (Q13153 whole entry): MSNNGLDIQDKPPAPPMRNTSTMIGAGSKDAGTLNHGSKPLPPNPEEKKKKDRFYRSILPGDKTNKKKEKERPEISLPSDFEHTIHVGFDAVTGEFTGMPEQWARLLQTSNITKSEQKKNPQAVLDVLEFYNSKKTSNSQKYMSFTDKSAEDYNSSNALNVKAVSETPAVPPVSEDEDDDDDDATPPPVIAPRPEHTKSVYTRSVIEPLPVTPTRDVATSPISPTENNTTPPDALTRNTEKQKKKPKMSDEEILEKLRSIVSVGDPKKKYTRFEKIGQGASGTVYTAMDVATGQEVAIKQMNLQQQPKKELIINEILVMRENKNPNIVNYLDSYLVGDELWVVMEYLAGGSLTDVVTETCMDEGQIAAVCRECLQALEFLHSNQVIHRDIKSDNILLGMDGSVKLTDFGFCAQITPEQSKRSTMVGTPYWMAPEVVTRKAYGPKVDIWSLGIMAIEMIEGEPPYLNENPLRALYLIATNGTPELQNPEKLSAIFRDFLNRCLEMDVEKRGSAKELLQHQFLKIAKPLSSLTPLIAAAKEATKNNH
smiles,measurement,setting,value
Nc1cnc(N2CCc3cc(S(=O)(=O)Nc4c(F)cc(Cl)cc4F)cc(N4CCCC4=O)c32)nc1 [TP-020n],% of control,Insulin receptor,89%
same,% of control,[1],89%
CN(C)CCCOc1ccc(-c2cc(NCCCn3cccn3)nc(S(C)(=O)=O)n2)cc1,dTM,[2],< 2 K
O=C(NOC[C@H](O)CO)c1ccc(F)c(F)c1Nc1ccc(I)cc1F,% of control,[3],67%
Cn1cc(-n2cnc3c(NCc4nc5cc(Cl)c(Cl)cc5[nH]4)nc(N4CCOCC4)nc32)cn1,% of control,[4],1.04%
COc1cc(Nc2nc(C)cc(-c3cnn4nc(OC)ccc34)n2)cc(C(F)(F)F)c1,% of control,[5],100%
COCC(=O)NC/C=C/c1ccc2ncnc(Nc3ccc(Oc4ccc(C)nc4)c(C)c3)c2c1 [CP-724714],% of control,[6],100%
O[C@H]1CC[C@H](Nc2ncc3nc(Nc4c(F)cc(F)cc4F)n([C@H]4CCOC4)c3n2)CC1,% of control,[7],91%
